Results published in ChEMBL document CHEMBL1201862, “PubChem BioAssay data set” (2004).
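Grown in 96-well plates, cells were treated for 48 hours with each compound at five concentrations. Insufficient inhibition: endpoint recorded as highest concentration tested. Here, GI50 denotes the concentration required for 50% inhibition of growth.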 Active and inactive are the calls of the source. No stated cut-off is given here; in the data, active = GI50 up to about 1.1 µM and inactive = higher.

How the values were obtained:
Assay in all cases: inhibition of tumour cell growth, NCI panel, 48 h
786-0 = system: 786-0
A498 = system: A498
A549 = system: A549
ACHN = system: ACHN
BT-549 = system: BT-549
CAKI-1 = system: CAKI-1
CCRF-CEM = system: CCRF-CEM
COLO 205 = system: COLO 205
DU-145 = system: DU-145
EKVX = system: EKVX
HCT-116 = system: HCT-116
HCT-15 = system: HCT-15
HL-60 = system: HL-60
HOP-62 = system: HOP-62
HOP-92 = system: HOP-92
HT-29 = system: HT-29
Hs-578T = system: Hs-578T
IGROV-1 = system: IGROV-1
K562 = system: K562
KM12 = system: KM12
LOX IMVI = system: LOX IMVI
M14 = system: M14
MCF7 = system: MCF7
MDA-MB-231 = system: MDA-MB-231
MDA-MB-435 = system: MDA-MB-435
MDA-N = system: MDA-N
MOLT-4 = system: MOLT-4
Malme-3M = system: Malme-3M
NCI-H226 = system: NCI-H226
NCI-H23 = system: NCI-H23
NCI-H460 = system: NCI-H460
NCI-H522 = system: NCI-H522
NCI/ADR-RES = system: NCI/ADR-RES
OVCAR-3 = system: OVCAR-3
OVCAR-4 = system: OVCAR-4
OVCAR-5 = system: OVCAR-5
OVCAR-8 = system: OVCAR-8
PC-3 = system: PC-3
RPMI-8226 = system: RPMI-8226
RXF 393 = system: RXF 393
SF-268 = system: SF-268
SF-295 = system: SF-295
SF-539 = system: SF-539
SK-MEL-28 = system: SK-MEL-28
SK-MEL-2 = system: SK-MEL-2
SK-MEL-5 = system: SK-MEL-5
SK-OV-3 = system: SK-OV-3
SN12C = system: SN12C
SNB-19 = system: SNB-19
SNB-75 = system: SNB-75
SR = system: SR
SW-620 = system: SW-620
T47D = system: T47D
TK-10 = system: TK-10
U-251 = system: U-251
UACC-257 = system: UACC-257
UACC-62 = system: UACC-62
UO-31 = system: UO-31

Structure (SMILES): Cc1nc2sc3ccccc3n2c(=O)c1/N=N/c1ccc(Br)cc1
- GI50 (786-0): > 100 µM (inactive)
- GI50 (A498): 43.3 µM (inactive)
- GI50 (A549): > 100 µM (inactive)
- GI50 (ACHN): > 100 µM (inactive)
- GI50 (BT-549): > 100 µM (inactive)
- GI50 (CAKI-1): > 100 µM (inactive)
- GI50 (CCRF-CEM): 77.8 µM (inactive)
- GI50 (COLO 205): > 100 µM (inactive)
- GI50 (DU-145): > 100 µM (inactive)
- GI50 (EKVX): 57.1 µM (inactive)
- GI50 (HCT-116): > 100 µM (inactive)
- GI50 (HCT-15): > 100 µM
- GI50 (HL-60): 81.8 µM (inactive)
- GI50 (HOP-62): > 100 µM (inactive)
- GI50 (HOP-92): 76.4 µM (inactive)
- GI50 (HT-29): > 100 µM (inactive)
- GI50 (Hs-578T): 67.5 µM (inactive)
- GI50 (IGROV-1): > 100 µM (inactive)
- GI50 (K562): 81.1 µM (inactive)
- GI50 (KM12): > 100 µM (inactive)
- GI50 (LOX IMVI): 54.8 µM (inactive)
- GI50 (M14): > 100 µM (inactive)
- GI50 (MCF7): 81.3 µM (inactive)
- GI50 (MDA-MB-231): 60.1 µM (inactive)
- GI50 (MDA-MB-435): > 100 µM (inactive)
- GI50 (MDA-N): > 100 µM (inactive)
- GI50 (MOLT-4): 55.8 µM (inactive)
- GI50 (Malme-3M): > 100 µM (inactive)
- GI50 (NCI-H226): 44.8 µM (inactive)
- GI50 (NCI-H23): > 100 µM (inactive)
- GI50 (NCI-H460): > 100 µM (inactive)
- GI50 (NCI-H522): 38.5 µM (inactive)
- GI50 (NCI/ADR-RES): > 100 µM (inactive)
- GI50 (OVCAR-3): > 100 µM (inactive)
- GI50 (OVCAR-4): 71.3 µM (inactive)
- GI50 (OVCAR-5): > 100 µM (inactive)
- GI50 (OVCAR-8): > 100 µM (inactive)
- GI50 (PC-3): 51.5 µM (inactive)
- GI50 (RPMI-8226): 71.3 µM (inactive)
- GI50 (RXF 393): > 100 µM (inactive)
- GI50 (SF-268): 70.5 µM (inactive)
- GI50 (SF-295): > 100 µM (inactive)
- GI50 (SF-539): > 100 µM (inactive)
- GI50 (SK-MEL-28): > 100 µM (inactive)
- GI50 (SK-MEL-2): 81.5 µM (inactive)
- GI50 (SK-MEL-5): > 100 µM (inactive)
- GI50 (SK-OV-3): > 100 µM (inactive)
- GI50 (SN12C): > 100 µM (inactive)
- GI50 (SNB-19): > 100 µM (inactive)
- GI50 (SNB-75): > 100 µM (inactive)
- GI50 (SR): 82.6 µM (inactive)
- GI50 (SW-620): > 100 µM (inactive)
- GI50 (T47D): 90.8 µM (inactive)
- GI50 (TK-10): > 100 µM (inactive)
- GI50 (U-251): > 100 µM (inactive)
- GI50 (UACC-257): > 100 µM (inactive)
- GI50 (UACC-62): > 100 µM (inactive)

Structure (SMILES): O=C1/C(=C/c2ccc(Cl)cc2)CSc2ccccc21
- GI50 (786-0): 17.5 µM (inactive)
- GI50 (A498): 62.5 µM (inactive)
- GI50 (A549): 45.5 µM (inactive)
- GI50 (BT-549): 27 µM (inactive)
- GI50 (CAKI-1): 19.4 µM (inactive)
- GI50 (CCRF-CEM): 3.1 µM (inactive)
- GI50 (COLO 205): 25.3 µM (inactive)
- GI50 (DU-145): 38.2 µM (inactive)
- GI50 (HCT-116): 2.6 µM (inactive)
- GI50 (HCT-15): 4.62 µM
- GI50 (HL-60): 17.9 µM (inactive)
- GI50 (HOP-62): 20.5 µM (inactive)
- GI50 (HOP-92): 33.6 µM (inactive)
- GI50 (HT-29): 19.4 µM (inactive)
- GI50 (Hs-578T): 4.57 µM (inactive)
- GI50 (IGROV-1): 23.7 µM (inactive)
- GI50 (K562): 3.37 µM (inactive)
- GI50 (KM12): 10.1 µM (inactive)
- GI50 (LOX IMVI): 2.68 µM (inactive)
- GI50 (M14): 31.8 µM (inactive)
- GI50 (MCF7): 2.26 µM (inactive)
- GI50 (MDA-MB-231): 19 µM (inactive)
- GI50 (MDA-MB-435): 4.86 µM (inactive)
- GI50 (MDA-N): 5.78 µM (inactive)
- GI50 (MOLT-4): 5.55 µM (inactive)
- GI50 (Malme-3M): 25.5 µM (inactive)
- GI50 (NCI-H226): 17.4 µM (inactive)
- GI50 (NCI-H23): 21.3 µM (inactive)
- GI50 (NCI-H460): 28.7 µM (inactive)
- GI50 (NCI/ADR-RES): 16.6 µM (inactive)
- GI50 (OVCAR-3): 22.3 µM (inactive)
- GI50 (OVCAR-4): 36.1 µM (inactive)
- GI50 (OVCAR-8): 20.5 µM (inactive)
- GI50 (PC-3): 14.1 µM (inactive)
- GI50 (RPMI-8226): 2.31 µM (inactive)
- GI50 (RXF 393): 18.2 µM (inactive)
- GI50 (SF-268): 22.5 µM (inactive)
- GI50 (SF-539): 17.8 µM (inactive)
- GI50 (SK-MEL-28): 23.1 µM (inactive)
- GI50 (SK-MEL-2): 15.7 µM (inactive)
- GI50 (SK-MEL-5): 20.6 µM (inactive)
- GI50 (SK-OV-3): 31.8 µM (inactive)
- GI50 (SN12C): 17.2 µM (inactive)
- GI50 (SNB-19): 9.2 µM (inactive)
- GI50 (SNB-75): 31.9 µM (inactive)
- GI50 (SR): 5 µM (inactive)
- GI50 (SW-620): 3.71 µM (inactive)
- GI50 (T47D): 28 µM (inactive)
- GI50 (TK-10): 42.2 µM (inactive)
- GI50 (U-251): 5.87 µM (inactive)
- GI50 (UACC-257): 12.7 µM (inactive)
- GI50 (UACC-62): 3.34 µM (inactive)
- GI50 (UO-31): 17.6 µM (inactive)

Structure (SMILES): Nc1cc2c(nnn2C2OC(COCc3ccccc3)C(OCc3ccccc3)C2OCc2ccccc2)c(=O)[nH]1 (configuration not stated)
- GI50 (786-0): 19.6 µM (inactive)
- GI50 (A498): 48.8 µM (inactive)
- GI50 (A549): 13.5 µM (inactive)
- GI50 (ACHN): 32.8 µM (inactive)
- GI50 (BT-549): 20 µM (inactive)
- GI50 (CAKI-1): > 100 µM (inactive)
- GI50 (CCRF-CEM): 10.3 µM (inactive)
- GI50 (COLO 205): 7.33 µM (inactive)
- GI50 (DU-145): 35.9 µM (inactive)
- GI50 (EKVX): 6.15 µM (inactive)
- GI50 (HCT-116): 10.6 µM (inactive)
- GI50 (HCT-15): 40.3 µM
- GI50 (HL-60): 5.47 µM (inactive)
- GI50 (HOP-62): 37.8 µM (inactive)
- GI50 (HOP-92): 28.4 µM (inactive)
- GI50 (HT-29): 14.2 µM (inactive)
- GI50 (Hs-578T): 97.1 µM (inactive)
- GI50 (IGROV-1): 33.1 µM (inactive)
- GI50 (K562): 7.41 µM (inactive)
- GI50 (KM12): 13 µM (inactive)
- GI50 (LOX IMVI): 14.1 µM (inactive)
- GI50 (M14): 13.5 µM (inactive)
- GI50 (MCF7): 5.48 µM (inactive)
- GI50 (MDA-MB-231): 21.6 µM (inactive)
- GI50 (MDA-MB-435): 10.9 µM (inactive)
- GI50 (MDA-N): 10.2 µM (inactive)
- GI50 (MOLT-4): 7.85 µM (inactive)
- GI50 (Malme-3M): 27.7 µM (inactive)
- GI50 (NCI-H226): 15.5 µM (inactive)
- GI50 (NCI-H23): 19.5 µM (inactive)
- GI50 (NCI-H460): 15.9 µM (inactive)
- GI50 (NCI-H522): 18.9 µM (inactive)
- GI50 (NCI/ADR-RES): > 100 µM (inactive)
- GI50 (OVCAR-3): 18.7 µM (inactive)
- GI50 (OVCAR-4): 12.5 µM (inactive)
- GI50 (OVCAR-5): 27.6 µM (inactive)
- GI50 (OVCAR-8): 18.9 µM (inactive)
- GI50 (PC-3): 6.4 µM (inactive)
- GI50 (RXF 393): 6.75 µM (inactive)
- GI50 (SF-268): 29.4 µM (inactive)
- GI50 (SF-295): 17.7 µM (inactive)
- GI50 (SF-539): 21.6 µM (inactive)
- GI50 (SK-MEL-28): 46.9 µM (inactive)
- GI50 (SK-MEL-2): 10.5 µM (inactive)
- GI50 (SK-MEL-5): 7.26 µM (inactive)
- GI50 (SK-OV-3): 33.3 µM (inactive)
- GI50 (SN12C): 9.59 µM (inactive)
- GI50 (SNB-19): 22.8 µM (inactive)
- GI50 (SNB-75): 25.8 µM (inactive)
- GI50 (SR): 11.5 µM (inactive)
- GI50 (SW-620): 37 µM (inactive)
- GI50 (T47D): 5.9 µM (inactive)
- GI50 (TK-10): 10 µM (inactive)
- GI50 (U-251): 9.86 µM (inactive)
- GI50 (UACC-257): 14.9 µM (inactive)
- GI50 (UACC-62): 14.9 µM (inactive)
- GI50 (UO-31): 58.1 µM (inactive)
